The target of experiment [1] is T1, μOR (Homo sapiens, UniProt P35372).
T1 construct: host or cells: CHO-K1
In words: cell-based. The format is cell-based.

In experiment [2] the target is T2, κOR (Homo sapiens, UniProt P41145).
T2 construct: host or cells: CHO-K1
Put plainly: PathHunter β-arrestin-2 recruitment assay at the κOR. It counts as cell-based. As to conditions: FIG. 6. An excerpt: Cell Lines and Cell Culture. To perform the HitHunter cAMP accumulation assay, Chinese hamster ovary cells (CHO-K1) stably expressing human μ-opioid receptor (OPRM1, catalog no. 95-0107C2, DiscoverX, Fremont, CA, USA), K-opioid receptor (OPRK1, catalog no. 95-0088C2, DiscoverX, Fremont, CA, USA), or 6-opioid receptor (OPRD1, catalog no. 95-0108C2, DiscoverX, Fremont, CA, USA) were maintained at 80% confluence in F-12 media supplemented with 10% fetal bovine serum, 1% penicillin/streptomycin/L-glutamine, and 800 μg/mL G418. To perform the PathHunter β-arrestin-2 recruitment assay, U2OS-human κ opioid receptor (κOR) cells stably expressing the κOR and β-arrestin-2 (RRID:CVCL_LA97, DiscoverX, Fremont, CA, USA) were maintained in McCoy's 5A media supplemented with 10% FBS and containing 500 μg/mL geneticin and 250 μg/mL hygromycin. All cells were grown 37° C. under 5% CO2 in a humidified incubator under sterile conditions in T75 flasks. During passaging, cells were dislodged from the flask following a 3-5 min incubation with 0.25% trypsin or non-enzymatic detachment reagent and subcultivated at ratios of 1:10 (CHO) and 3:10 (U2OS).
PathHunter β-arrestin-2 Recruitment Assay. The R-arrestin-2 recruitment assay was performed using U2OS-human (κOR) PathHunter R-arrestin-2 cells (DiscoverX) as previously described.^77
(In general: Arrestin recruitment assays detect the binding of arrestin to an activated receptor.)

The target of a further experiment is 5-HT5A (Homo sapiens, UniProt P47898). Put plainly: PDSP radioligand displacement binding. To be noted: average of three independent trials. (Displacement assays read how much labelled ligand stays bound in the presence of the test substance.)
For the next experiment, the target named is T3, Alpha1B (Homo sapiens, UniProt P35368).
T3 sequence (P35368 1-520): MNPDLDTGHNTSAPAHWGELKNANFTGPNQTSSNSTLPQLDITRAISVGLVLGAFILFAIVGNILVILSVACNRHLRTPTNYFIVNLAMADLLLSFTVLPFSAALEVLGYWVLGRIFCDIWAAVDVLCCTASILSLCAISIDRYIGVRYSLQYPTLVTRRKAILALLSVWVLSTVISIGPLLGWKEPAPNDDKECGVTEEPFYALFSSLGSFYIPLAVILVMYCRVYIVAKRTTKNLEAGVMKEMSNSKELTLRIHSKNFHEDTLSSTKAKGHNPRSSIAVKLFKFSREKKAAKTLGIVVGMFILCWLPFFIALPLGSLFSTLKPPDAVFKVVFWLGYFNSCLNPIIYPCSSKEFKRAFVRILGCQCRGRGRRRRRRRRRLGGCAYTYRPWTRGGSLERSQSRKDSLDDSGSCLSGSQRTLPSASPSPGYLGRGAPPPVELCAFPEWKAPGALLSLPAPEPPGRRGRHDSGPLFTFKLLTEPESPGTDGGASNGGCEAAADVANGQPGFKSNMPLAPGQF
Put plainly: PDSP radioligand displacement binding. To be noted: average of three independent trials.

For another experiment, the target named is T4, Alpha2A (Homo sapiens, UniProt P08913).
T4 sequence (P08913 1-465): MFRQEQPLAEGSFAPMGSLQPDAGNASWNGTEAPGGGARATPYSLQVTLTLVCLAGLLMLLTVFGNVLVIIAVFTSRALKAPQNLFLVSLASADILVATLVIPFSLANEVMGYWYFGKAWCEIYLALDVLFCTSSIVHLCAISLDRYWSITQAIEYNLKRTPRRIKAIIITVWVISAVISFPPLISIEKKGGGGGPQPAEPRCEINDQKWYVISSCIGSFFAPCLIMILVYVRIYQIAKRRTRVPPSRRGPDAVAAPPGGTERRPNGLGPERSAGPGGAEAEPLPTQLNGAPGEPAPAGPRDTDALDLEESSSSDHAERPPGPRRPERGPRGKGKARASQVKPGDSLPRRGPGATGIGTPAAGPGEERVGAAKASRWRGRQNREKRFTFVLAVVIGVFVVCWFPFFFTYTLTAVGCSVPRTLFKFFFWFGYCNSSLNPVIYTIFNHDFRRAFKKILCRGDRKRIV
In words: PDSP radioligand displacement binding. As to conditions: average of three independent trials.

Another experiment addresses Sigma 2. In words: PDSP radioligand displacement binding. To be noted: average of three independent trials.
Experiment [3] concerns the target T2, κOR. Put plainly: cell-based. The format is cell-based.
Experiment [4] concerns the target T2, κOR. Put plainly: Competitive radioligand binding with [3H]U69,593. As to conditions: radioligand displacement assay.
Experiment [5] concerns the target T1, μOR. Put plainly: Competitive radioligand binding with [3H]DAMGO. To be noted: radioligand displacement assay.
The target in the next experiment is KOR (Homo sapiens, UniProt P41145). Put plainly: PDSP radioligand displacement binding. As to conditions: average of three independent trials.
The target in the next experiment is CXCR7 (Homo sapiens, UniProt P25106). In words: CXCR7 agonism follow-up of the PRESTO-Tango screen. It counts as cell-based. As to conditions: weak agonist compared to the CXCR7 agonist VUF11207.

Consider 2 compounds from patent US20250051332A1 (priority 2022, published 2025).

Usually Ki stands for a dissociation constant, usually derived from enzyme kinetics or from competition with a known ligand. A higher Ki goes with a looser hold on the target. Take `C/C=C1/CN2CC[C@]34C(=C(C(=O)OC)[C@H]1C[C@H]23)Nc1ccc(Br)cc14` [Compound 2, 10-Bromoakuammicine]: at μOR [1], the “agonist activity at the μOR” value is on record as “only weakly activated the μOR”. The “βArr2 recruitment compared with U50,488” value on κOR [2] is “more efficacious than the reference compound U50,488”. The Ki was 721 nM at 5-HT5A, 2880 nM on Alpha1B, > 10000 nM on Alpha2A and 2620 nM at Sigma 2.

What is called EC50 is the concentration needed to bring the measured effect to its halfway point. For the compound `C/C=C1/CN2CC[C@]34C(=C(C(=O)OC)[C@H]1C[C@H]23)Nc1ccc(I)cc14` [Compound 3, 10-Iodoakuammicine], the “κOR cAMP inhibition pEC50 ± SEM” value on κOR [3] is listed as 8.2 ± 0.1. For the same compound, the figures for the EC50 on κOR [3] (read-out: κOR cAMP inhibition EC50) and on μOR [1] (read-out: μOR cAMP inhibition EC50) were 5.7 nM and 41000 nM, respectively. In addition, the “agonist activity at the μOR” value on μOR [1] was “only weakly activated the μOR”. At μOR [1], the “μOR cAMP inhibition Emax ± SEM (%)” value is on record as <10%. Moreover, on μOR [1], the “μOR cAMP inhibition pEC50 ± SEM” value was found to be 4.4 ± 1.9. Moreover, on κOR [2], the “βArr2 recruitment compared with U50,488” value is listed as “more efficacious than the reference compound U50,488”. For the same compound, the inhibition constant Ki at κOR [4] amounted to 0.087 nM; at μOR [5], 3600 nM; on KOR, 1 nM; on 5-HT5A, 829 nM; on Alpha1B, 2020 nM; at Alpha2A, 732 nM. This compound also yielded a Ki on Sigma 2 of 2220 nM. For the same compound, the “concentration at which CXCR7 is activated” value on CXCR7 was > 3 µM.
